Like-named read-outs stand apart in the source and are kept apart here.
Assays:
recombinant human SIRT1 = target: T1, recombinant human SIRT1 (Homo sapiens, UniProt Q96EB6); experiment: SIRT1 fluorescent deacetylation assay (p53-382 acetylated peptide substrate); assay type: biochemical
T1 sequence (Q96EB6 1-747): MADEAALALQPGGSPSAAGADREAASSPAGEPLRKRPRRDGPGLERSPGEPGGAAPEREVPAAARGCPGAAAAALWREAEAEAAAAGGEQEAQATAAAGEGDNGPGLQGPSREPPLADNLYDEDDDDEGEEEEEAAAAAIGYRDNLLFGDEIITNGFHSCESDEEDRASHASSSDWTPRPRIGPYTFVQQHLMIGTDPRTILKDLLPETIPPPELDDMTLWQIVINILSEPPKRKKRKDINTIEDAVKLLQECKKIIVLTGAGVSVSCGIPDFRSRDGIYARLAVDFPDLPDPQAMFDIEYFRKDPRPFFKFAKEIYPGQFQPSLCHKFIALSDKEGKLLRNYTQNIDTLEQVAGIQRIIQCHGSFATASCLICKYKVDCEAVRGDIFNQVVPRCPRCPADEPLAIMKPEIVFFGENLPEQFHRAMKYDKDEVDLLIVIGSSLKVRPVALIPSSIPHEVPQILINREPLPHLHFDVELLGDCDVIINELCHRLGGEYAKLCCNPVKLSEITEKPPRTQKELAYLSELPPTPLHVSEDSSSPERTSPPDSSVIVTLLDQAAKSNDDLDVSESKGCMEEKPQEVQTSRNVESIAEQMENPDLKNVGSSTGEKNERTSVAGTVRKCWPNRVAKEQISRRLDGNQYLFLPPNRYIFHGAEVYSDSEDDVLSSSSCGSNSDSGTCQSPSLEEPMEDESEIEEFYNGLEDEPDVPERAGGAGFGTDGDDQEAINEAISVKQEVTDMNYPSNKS

S. cerevisiae = experiment: Yeast replicative lifespan; assay type: cell-based; conditions: 10 μM; for % change in yeast replicative lifespan relative to untreated organisms: 2% glucose YPD, untreated = 100%; for Effect on maximum lifespan / Increase of average lifespan / Effect on lifespan: wild type
Protocol: Average lifespan was determined for wild type untreated (□), quercetin (◯) and piceatannol (●).

[1] = Stability in solution (decay of SIRT1 fold-stimulation of aged stock); assay type: physicochemical; conditions: ethanol stock solution; ethanol stock 2.5 mM, room temperature, glass vials, nitrogen; assayed at 50 μM; read-out: Stability in Solution t1/2 (converted)
From the text: The fold-stimulation (ratio to control) obtained with a compound diluted from an aged stock solution was compared to an identical dilution from a stock solution freshly prepared from the solid compound. “t1/2” is defined as the time required for the SIRT1 fold-stimulation of the compound from the aged solution to decay to one-half of that obtained from a freshly prepared solution. […] Stocks were aged by storage at room […] temperature, in glass vials, under a nitrogen atmosphere.

C. elegans (strain N2) = experiment: C. elegans lifespan; assay type: in vivo; conditions: N2 worms, untreated = 100%
Protocol: Thus, the presence of resveratrol in the growth media of C. elegans extends their lifespan.
The effect of some of these compounds on lifespan was determined in yeast, C. elegans and D. melanogaster, as described above.

HeLa S3 cells = experiment: Cellular deacetylase assay with Fluor de Lys substrate; assay type: cell-based, human; conditions: 1 μM TSA
Protocol: FdL (200 μM) is added to growth media and cells are incubated for 1-3 hours to allow FdL to enter the cells and the lysine-deacetylated product (deAc-FdL) to accumulate intracellularly. Cells are lysed with detergent in the presence of 1 μM TSA and 1 mM nicotinamide. Addition of the non-cell-permeable Developer (BIOMOL) releases a fluorophor, specifically from deAc-FdL. […] Cells were grown adherently in DMEM/10% FCS and treated for 1 hour with 200 μM FdL, 1 μM TSA and either vehicle (0.5% final DMSO, Control) or 500 μM of the indicated compound. Intracellular accumulation of deAc-FdL was then determined as described briefly in FIG. 4a. […] Lysates were prepared and analyzed by Western blot as in FIG. 4c. […] Lysates were prepared and analyzed as above.
FIG. 6a through 6c show intracellular deacetylation activity measured with a cell-permeable, fluorogenic HDAC and sirtuin substrate. […] Intracellular and medium levels of deacetylated substrate (deAc-FdL) were determined according to the manufacturer's instructions (HDAC assay kit, BIOMOL). […]
Themed compound libraries (BIOMOL) were used for primary and secondary screening. […] HeLa cells were grown and the cellular deacetylation assays were performed and read, as above, but in full-volume 96-well microplates (Corning Costar 3595). […]

[2] = Table 9, resveratrol analogs, 100 μM, 25 μM NAD+, 25 μM p53-382 acetylated peptide
[3] = Supplementary Table 1, stilbenes and chalcones, 100 μM, 25 μM NAD+, 25 μM p53-382 acetylated peptide
[4] = Table 1, 100 μM compound, 25 μM NAD+, 25 μM p53-382 acetylated peptide
[5] = Supplementary Table 2, flavones part I, 100 μM, 25 μM NAD+, 25 μM p53-382 acetylated peptide

Which “Ratio to Control Rate Mean ± SE” value (recombinant human SIRT1; [2]) does the source give for `Oc1cc(O)cc(/C=C/c2ccc(F)cc2)c1` [BML-212, 3,5-Dihydroxy-4′-fluoro-trans-stilbene] here?
The value was 8.20 ± 0.69.

What about the “% change in yeast replicative lifespan relative to untreated organisms” value (S. cerevisiae) of the same compound?
The value was 98%.

And the half-life at 50 µM [1]?
The half-life at 50 µM was 2.75 days.

Which results are given for `Oc1cc(O)cc(/C=C/c2ccc(Cl)cc2)c1` [BML-217, 3,5-Dihydroxy-4′-chloro-trans-stilbene]?
Ratio to Control Rate Mean ± SE (recombinant human SIRT1; [2]): 10.6 ± 0.4; % change in yeast replicative lifespan relative to untreated organisms (S. cerevisiae): 90%

Which results are given for `CC(=O)Oc1ccc(/C=C/c2cc(O)cc(O)c2)cc1` [BML-221, 3,5-Dihydroxy-4′-acetoxy-trans-stilbene]?
Ratio to Control Rate Mean ± SE (recombinant human SIRT1; Table 11, resveratrol analogs, 100 μM, 25 μM NAD+, 25 μM p53-382 acetylated peptide): 3.05 ± 0.54; % change in yeast replicative lifespan relative to untreated organisms (S. cerevisiae): 165%; % change in C. elegans lifespan relative to untreated organisms (C. elegans (strain N2); 100/500 μM, E. coli as food): >100% (ongoing); half-life [1]: 21 days

With `COc1ccc(/C=C/c2cc(O)cc(O)c2)cc1` [BML-233, 3,5-Dihydroxy-4′-methoxy-trans-stilbene] as the compound, how does the “Ratio to Control Rate Mean ± SE” value (recombinant human SIRT1) read?
The value was 5.48 ± 0.33.

What about the “% change in C. elegans lifespan relative to untreated organisms” value (C. elegans (strain N2); (10) printed in the cell) of the same compound?
The value was 70% (10).

And the “% change in C. elegans lifespan relative to untreated organisms” value (C. elegans (strain N2); (500) printed in the cell)?
The value was 50% (500).

With `O=C(/C=C/c1ccc(O)c(O)c1)c1ccc(O)cc1O` [Butein, 3,4,2′,4′-Tetrahydroxychalcone] as the compound, how does the “Ratio to Control Rate Mean ± SE” value (recombinant human SIRT1; [3]) read?
The value was 8.53 ± 0.89.

What about the “Ratio to Control Rate Mean ± SE” value (recombinant human SIRT1; [4]) of the same compound?
Its value is 8.53 ± 0.89.

What about the “Effect on maximum lifespan” value (S. cerevisiae) of the same compound?
Its value is “significantly increased”.

And the “Increase of average lifespan” value (S. cerevisiae)?
Its value is 31%.

What about the “TSA-insensitive cellular deacetylation signal” value (HeLa S3 cells; 500 μM compound, 200 μM FdL, 1 hour) of the same compound?
The value was “no effect”.

With `O=c1c(O)c(-c2ccc(O)c(O)c2)oc2cc(O)ccc12` [Fisetin, 3,7,3′,4′-Tetrahydroxyflavone] as the compound, how does the “Ratio to Control Rate Mean ± SE” value (recombinant human SIRT1; [5]) read?
Its value is 6.58.

What about the “Ratio to Control Rate Mean ± SE” value (recombinant human SIRT1; [4]) of the same compound?
The value was 6.58 ± 0.69.

And the “Effect on maximum lifespan” value (S. cerevisiae)?
Its value is “significantly increased”.

And the “Increase of average lifespan” value (S. cerevisiae)?
The value was 55%.

Which results are given for `Oc1cc(O)cc(/C=C/c2ccc(O)c(O)c2)c1` [Piceatannol, 3,5,3′,4′-Tetrahydroxy-trans-stilbene]?
Ratio to Control Rate Mean ± SE (recombinant human SIRT1; [3]): 7.90 ± 0.50; Ratio to Control Rate Mean ± SE (recombinant human SIRT1; [4]): 7.90 ± 0.50; Stimulation of SIRT1 activity (recombinant human SIRT1; initial library screen): eight-fold; Effect on lifespan (S. cerevisiae): no significant effect

For `Oc1cc(O)cc(/C=C/c2ccccc2)c1` [Pinosylvin, 3,5-Dihydroxy-trans-stilbene], which “Ratio to Control Rate Mean ± SE” value (recombinant human SIRT1; [2]) is on record?
The value was 9.95 ± 0.45.

And the “% change in yeast replicative lifespan relative to untreated organisms” value (S. cerevisiae)?
Its value is 114%.

Which results are given for `O=c1c(O)c(-c2ccc(O)c(O)c2)oc2cc(O)cc(O)c12` [Quercetin, 3,5,7,3′,4′-Pentahydroxyflavone]?
Ratio to Control Rate Mean ± SE (recombinant human SIRT1; [5]): 4.59 ± 0.47; Ratio to Control Rate Mean ± SE (recombinant human SIRT1; [4]): 4.59 ± 0.47; Effect on lifespan (S. cerevisiae): no significant effect

For `Cc1c(C)c2c(c(C)c1O)CCC(C)(C(=O)O)O2` (stereo not drawn) [Trolox, 6-Hydroxy-2,5,7,8-tetramethylchroman-2-carboxylic acid, reference compound], which “Ratio to Control Rate Mean ± SE” value (recombinant human SIRT1; Supplementary Table 6, free radical protective compounds, 100 μM, 25 μM NAD+, 25 μM p53-382 acetylated peptide) is on record?
Its value is 0.995 ± 0.019.

Which “Ratio to Control Rate Mean ± SE” value (recombinant human SIRT1; Supplementary Table 8, compound at 100 μM, 25 μM NAD+, 25 μM p53-382 acetylated peptide) does the source give for `Cc1ccc(NC(=O)c2cccc(N(C)C)c2)cc1NC(=O)c1ccc(O)cc1` [ZM 336372, reference compound] here?
The value was 3.5 ± 1.1.

Which “Ratio to Control Rate Mean ± SE” value (recombinant human SIRT1; [3]) does the source give for `C(=C/c1ccccc1)/c1ccccc1` [cis-Stilbene] here?
The value was 1.14 ± 0.29.

Which “Ratio to Control Rate Mean ± SE” value (recombinant human SIRT1; [3]) does the source give for `C(=C\c1ccccc1)/c1ccccc1` [trans-Stilbene] here?
The value was 1.48 ± 0.15.

For `CC(/C=C/C(=O)NO)=C\[C@@H](C)C(=O)c1ccc(N(C)C)cc1` [trichostatin A, reference compound], which “Signal insensitive to trichostatin A” value (HeLa S3 cells; HeLa cells growing adherently) is on record?
The value was 5-10%.

Which “Ratio to Control Rate Mean ± SE” value (recombinant human SIRT1; Supplementary Table 8, compound at 10 μM, 25 μM NAD+, 25 μM p53-382 acetylated peptide) does the source give for Camptothecin [reference compound] here?
Its value is 2.92 ± 0.41.

Reference: US20060084135A1, “Compositions for manipulating the lifespan and stress response of cells and organisms” (priority 2003, published 2006)
